Like-named read-outs stand apart in the source and are kept apart here.
Tests used:
OCT2 [1] = target: T1, OCT2 (Homo sapiens, UniProt O15244); experiment: Inhibition of OCT2-mediated [3H]MPP+ uptake in HEK-OCT2 cells
Method: (§1) For the transport assays HEK cell lines stably transfected with human OCT2 (HEK-OCT2) or the vector only (HEK-VC) were used. The HEK-OCT2 cell line was established and characterized previously. HEK-OCT2 and HEK-VC cells were seeded in poly-D-lysine (Sigma Aldrich, Taufkirchen, Germany) coated 48-well-plates at a density of 1.2 x 10^5 cells/well. […] Uptake was stopped by washing the cells three times with ice-cold uptake buffer. Afterwards, cells were lysed with 5 mM Tris buffer (pH 7.3) containing 0.1% Triton X-100. The intracellular accumulation of radioactivity was determined by liquid scintillation counting (PerkinElmer, Rodgau-Jügesheim, Germany) and protein concentration of each lysate was measured with bicinchonic acid assay (BCA Protein Assay Kit, Thermo Fisher Scientific, Waltham, MA, USA). We performed two to eight experiments each on at least two separate days, i.e., n = 4–16.

OCT2 [2] = target: T1, OCT2; experiment: in vitro
Method: as §1
Experimental half-maximal inhibitory concentrations (IC50 values) were measured as the substrate uptake in the presence of increasing concentrations of test drugs. These experiments were performed as described above (three experiments each on two separate days, i.e., n = 6). IC50 values were calculated with GraphPad Prism 5.0 (GraphPad Software, San Diego, CA, USA). IC50 was estimated by a sigmoidal inhibition model and was fit to the equation V = V 0 / (1 + (I / IC50 ) ^n ) by nonlinear regression. V is the net uptake in the presence of the inhibitor, V 0 is the net uptake in the absence of the inhibitor, I is the concentration of the inhibitor and n is the slope.

[3] = test drug 20 µM, MPP+ 50 μM, 3 min, net uptake HEK-OCT2 minus HEK-VC
[4] = test drug 200 µM, MPP+ 50 μM, 3 min, net uptake HEK-OCT2 minus HEK-VC

T1 sequence (O15244 whole entry): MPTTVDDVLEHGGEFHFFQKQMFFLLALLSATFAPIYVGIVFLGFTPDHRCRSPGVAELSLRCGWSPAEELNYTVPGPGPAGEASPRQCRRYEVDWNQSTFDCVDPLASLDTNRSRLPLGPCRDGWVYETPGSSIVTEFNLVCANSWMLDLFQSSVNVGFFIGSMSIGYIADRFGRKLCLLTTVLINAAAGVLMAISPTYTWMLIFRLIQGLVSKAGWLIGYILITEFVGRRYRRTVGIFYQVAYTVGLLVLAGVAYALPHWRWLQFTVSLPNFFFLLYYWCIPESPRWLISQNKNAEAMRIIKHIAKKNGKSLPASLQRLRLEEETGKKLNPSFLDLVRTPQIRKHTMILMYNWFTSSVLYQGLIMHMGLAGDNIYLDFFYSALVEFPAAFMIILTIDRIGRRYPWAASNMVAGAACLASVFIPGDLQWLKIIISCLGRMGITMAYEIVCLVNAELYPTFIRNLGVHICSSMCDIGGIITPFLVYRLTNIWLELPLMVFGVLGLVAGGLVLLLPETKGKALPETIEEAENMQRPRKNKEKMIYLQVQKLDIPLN

SMILES	% Inhibition of OCT2-dependent MPP+ uptake at 20 µM (mean ± SEM) (OCT2 [1]; [3])	% Inhibition of OCT2-dependent MPP+ uptake at 200 µM (mean ± SEM) (OCT2 [1]; [4])	% Inhibition of OCT2-dependent MF uptake at 20 µM (mean ± SEM) (OCT2 [2]; human, pH 7.3)	% Inhibition of OCT2-dependent MF uptake at 200 µM (mean ± SEM) (OCT2 [2]; human, pH 7.3)	% Inhibition of OCT2-dependent MF uptake at 20 µM (mean ± SEM) (OCT2 [2])	% Inhibition of OCT2-dependent MF uptake at 200 µM (mean ± SEM) (OCT2 [2])	% Inhibition of OCT2-dependent MPP+ uptake at 20 µM (mean ± SEM) (OCT2 [1]; human, pH 7.3)	% Inhibition of OCT2-dependent MPP+ uptake at 200 µM (mean ± SEM) (OCT2 [1]; human, pH 7.3)
NCCCC[C@H](N[C@@H](CCc1ccccc1)C(=O)O)C(=O)N1CCC[C@H]1C(=O)O [Lisinopril]	16.0 ± 9.0%	9.8 ± 11.8%	-10.3 ± 12.9	2.9 ± 9.0	–	–	–	–
[Li] [Lithium]	-28.4 ± 7.5%	-36.7 ± 9.7%	–	–	-15.2 ± 7.9	-14.7 ± 6.8	–	–
O=C1Nc2ccc(Cl)cc2C(c2ccccc2Cl)=NC1O (stereo not shown) [Lorazepam]	0.3 ± 5.1%	17.7 ± 7.3%	32.0 ± 2.2	96.5 ± 1.0	–	–	–	–
CN1C(=O)C(O)N=C(c2ccccc2Cl)c2cc(Cl)ccc21 (stereo not shown) [Lormetazepam]	–	–	77.0 ± 0.6	92.4 ± 0.5	–	–	47.8 ± 8.4	69.8 ± 5.3
CCCCc1nc(Cl)c(CO)n1Cc1ccc(-c2ccccc2-c2nn[nH]n2)cc1 [Losartan]	-41.8 ± 8.1%	-59.5 ± 6.1%	-9.3 ± 10.4	7.4 ± 8.2	–	–	–	–
CC1CCN(CCCC(=O)c2ccc(F)cc2)CC1 [Melperone]	8.6 ± 10.1%	69.7 ± 3.8%	75.0 ± 3.4	94.9 ± 4.2	–	–	–	–
CC12CC3CC(C)(C1)CC(N)(C3)C2 [Memantine]	20.6 ± 8.6%	54.0 ± 7.0%	54.0 ± 2.1	93.9 ± 0.6	–	–	–	–
Nc1ccc(O)c(C(=O)O)c1 [Mesalazine]	-51.3 ± 6.1%	-68.0 ± 8.5%	21.6 ± 11.1	59.8 ± 6.7	–	–	–	–
Cc1c(N(C)CS(=O)(=O)O)c(=O)n(-c2ccccc2)n1C [Metamizole]	-31.6 ± 6.0%	-39.1 ± 5.1%	-4.8 ± 6.4	8.4 ± 9.8	–	–	–	–
CCC(=O)C(CC(C)N(C)C)(c1ccccc1)c1ccccc1 (stereo not shown) [Methadone]	8.9 ± 4.4%	68.7 ± 3.8%	–	99.3 ± 0.3	–	–	–	–
CN(Cc1cnc2nc(N)nc(N)c2n1)c1ccc(C(=O)N[C@@H](CCC(=O)O)C(=O)O)cc1 [Methotrexate]	-19.0 ± 7.2%	-9.5 ± 3.0%	-1.1 ± 11.4	-5.8 ± 13.0	–	–	–	–
COC(=O)C(c1ccccc1)C1CCCCN1 (stereo not shown) [Methylphenidate]	–	–	17.9 ± 4.6	79.6 ± 2.3	–	–	11.5 ± 8.9	31.6 ± 4.7
CCN(CC)CCNC(=O)c1cc(Cl)c(N)cc1OC [Metoclopramide]	24.5 ± 2.9%	66.6 ± 8.4%	74.7 ± 8.5	93.9 ± 0.6	–	–	–	–
COCCc1ccc(OCC(O)CNC(C)C)cc1 (stereo not shown) [Metoprolol]	23.2 ± 6.5%	27.5 ± 6.9%	50.5 ± 5.9	88.2 ± 1.7	–	–	–	–

From paper PMC4556614 (PLoS ONE, 2015)
